Experimental findings from ChEMBL document CHEMBL5543057, “Hydrophobic tag-based protein degradation: Development, opportunity and challenge” (Eur J Med Chem, 2023) are described below.

The subject of one data set is NCI/ADR-RES. Nature of the data set: Antiproliferative activity against human MCF7ADR cells assessed as reduction in cell growth measured after 48 hrs by MTT assay. It is filed as functional, cell-based.
Data set [1] deals with Serine/threonine-protein kinase PLK1 (Homo sapiens, UniProt P53350). Description: Inhibition of PLK1 (unknown origin) (37 to 345 residues) expressed in Escherichia coli BL21 (DE3) incubated for 18 hrs by fluorescence polarization assay.
A short description of data set [2]: Half life in Sprague-Dawley rat at 1 mg/kg, iv measured for 24 hrs by LC-MS/MS analysis. It is filed as ADME, organism-based. Conditions: in vivo.
Data set [3] is described as follows: Half life in Sprague-Dawley rat at 50 mg/kg, ip measured for 24 hrs by LC-MS/MS analysis. The settings on record: in vivo. It is filed as ADME, organism-based.
A short description of data set [4]: Clearance in Sprague-Dawley rat at 50 mg/kg, ip measured after 24 hrs by LC-MS/MS analysis. The format is ADME, organism-based. The settings on record: in vivo.
Data set [5] is described as follows: Clearance in Sprague-Dawley rat at 1 mg/kg, iv measured for 24 hrs by LC-MS/MS analysis. It is filed as ADME, organism-based. Conditions: in vivo.
Data set [6] is described as follows: Oral bioavailability in Sprague-Dawley rat at 1 mg/kg by LC/MS/MS analysis. The settings on record: in vivo. It is filed as ADME, organism-based.
For data set [7], the target named is Protein cereblon/Bromodomain-containing protein 4 (Homo sapiens, UniProt O60885+Q96SW2). Description: PROTAC activity at CRBN/BRD4 in human MV4-11 cells assessed as induction of degradation of BRD4 measured after 24 hrs by Western blot analysis. It is filed as cell-based.
For another data set, the system named is HeLa. Nature of the data set: Antiproliferative activity against human HeLa cells assessed as reduction in cell viability incubated for 24 hrs by MTT assay. The format is functional, cell-based.

Each structure is given as a SMILES string.

Chain of Serine/threonine-protein kinase PLK1 (P53350 whole entry, the tested form may be a part): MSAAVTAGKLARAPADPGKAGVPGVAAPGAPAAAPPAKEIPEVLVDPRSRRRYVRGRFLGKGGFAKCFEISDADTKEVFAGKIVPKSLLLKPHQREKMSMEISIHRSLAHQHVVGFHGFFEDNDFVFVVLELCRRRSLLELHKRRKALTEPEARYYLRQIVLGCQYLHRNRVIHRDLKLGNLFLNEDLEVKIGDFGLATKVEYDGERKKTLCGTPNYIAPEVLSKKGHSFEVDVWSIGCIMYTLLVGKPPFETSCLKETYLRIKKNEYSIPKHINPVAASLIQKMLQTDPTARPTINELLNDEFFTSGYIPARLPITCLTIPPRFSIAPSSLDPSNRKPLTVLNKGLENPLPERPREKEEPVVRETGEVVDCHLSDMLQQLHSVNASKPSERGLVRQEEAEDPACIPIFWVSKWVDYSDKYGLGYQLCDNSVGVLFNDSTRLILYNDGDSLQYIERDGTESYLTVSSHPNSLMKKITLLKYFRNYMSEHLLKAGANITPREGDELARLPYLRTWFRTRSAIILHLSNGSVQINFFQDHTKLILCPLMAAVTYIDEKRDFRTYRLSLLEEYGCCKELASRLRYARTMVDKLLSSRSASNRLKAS
Chain of Protein cereblon/Bromodomain-containing protein 4 (Q96SW2 whole entry, looked up, other chains not shown): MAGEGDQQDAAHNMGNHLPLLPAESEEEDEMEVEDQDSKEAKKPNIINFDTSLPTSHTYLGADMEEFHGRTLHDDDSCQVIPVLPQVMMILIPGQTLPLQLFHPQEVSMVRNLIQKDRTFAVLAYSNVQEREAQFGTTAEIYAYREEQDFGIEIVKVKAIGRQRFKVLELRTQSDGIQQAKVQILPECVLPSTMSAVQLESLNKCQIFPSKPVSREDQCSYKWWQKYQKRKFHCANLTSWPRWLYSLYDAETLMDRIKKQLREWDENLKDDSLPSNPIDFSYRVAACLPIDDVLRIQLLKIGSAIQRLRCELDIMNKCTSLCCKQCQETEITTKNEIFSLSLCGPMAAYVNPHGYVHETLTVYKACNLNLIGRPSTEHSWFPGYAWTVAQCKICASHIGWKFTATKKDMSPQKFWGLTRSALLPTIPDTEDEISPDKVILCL

For `CC1=CC(=O)[C@H]2/C(C=O)=C\C[C@H]3[C@@H]([C@@H](C)/C=C\C=C/C(=O)OCCCCCCCCOC(=O)CC45CC6CC(CC(C6)C4)C5)CC[C@]3(C)C[C@H]12`, the IC50 with NCI/ADR-RES was determined as 1.49 µM.

With `CC1=C/C(=N\OC(=O)c2ccc(CNC(=O)CCc3cn(CCCCCCOCCOCCNC(=O)CC4C5CC6CC(C5)CC4C6)nn3)cc2C)C(C)=CC1=O` (stereo unspecified), it took 10.5 µM to reach half-maximal inhibition in [1] (IC50).

As for `CCc1cc2c(cc1N1CCN(CCCCC(=O)NCC3CC4C=CC3C4)CC1)C(C)(C)c1[nH]c3cc(C#N)ccc3c1C2=O` (stereo unspecified), the results for the half-life in [2] and in [3] were 25.2 min and 31.7 min, respectively. The compound further yielded a CL/F in [4] of 41.4 mL/min/kg. For the same compound, in [5], the clearance turned out to be 138 mL/min/kg. In data set [6], this compound displayed a bioavailability of 8.6%.

Consider `CC1=CC(=O)[C@H]2/C(C=O)=C\C[C@H]3[C@@H]([C@@H](C)/C=C\C=C/C(=O)OCCOCCOCCOCCOC(=O)CC45CC6CC(CC(C6)C4)C5)CC[C@]3(C)C[C@H]12`, for which the IC50 in the data set with NCI/ADR-RES turned out to be 2.03 µM.

On to `CC1=CC(=O)[C@H]2/C(C=O)=C\C[C@H]3[C@@H]([C@@H](C)/C=C\C=C/C(=O)OCCOCCOCCOC(=O)CC45CC6CC(CC(C6)C4)C5)CC[C@]3(C)C[C@H]12`, for which the IC50 in the data set with NCI/ADR-RES came out at 0.48 µM.

For `CC(C)C[C@H](NC(=O)CCOCCOCCOCCNC(=O)CNC1C2CC3CC(C2)CC1C3)C(=O)N[C@@H](CC(C)C)C(=O)N1CCC[C@H]1C(=O)N1CCC[C@H]1C(=O)N[C@H](C(=O)N[C@@H](CCC(=O)O)C(=O)N[C@@H](CCC(N)=O)C(=O)N[C@@H](CC(=O)O)C(=O)N[C@@H](CC(C)C)C(=O)N[C@@]1(C)CCC/C=C\CCC[C@@](C)(C(=O)N[C@@H](Cc2ccc(O)cc2)C(N)=O)NC(=O)[C@H](CC2CCCCC2)NC(=O)[C@H](CC(C)C)NC(=O)[C@H](CCCCN)NC1=O)[C@@H](C)O` (stereo partly specified), the DC50 in [7] was determined as 5 µM.

As to `CC(C)C[C@H](NC(=O)[C@H](C)NC(=O)[C@H](C)NC(=O)[C@H](C)NC(=O)[C@H](C)NC(=O)[C@H](CC(C)C)NC(=O)[C@@H](N)CCCNC(=N)N)C(=O)N[C@@H](CC(C)C)C(=O)N1CCC[C@H]1C(=O)N1CCC[C@H]1C(=O)N[C@H](C(=O)N[C@@H](CCC(=O)O)C(=O)N[C@@H](CCC(N)=O)C(=O)N[C@@H](CC(=O)O)C(=O)N[C@@H](CC(C)C)C(=O)N[C@@]1(C)CCC/C=C\CCC[C@@](C)(C(=O)N[C@@H](Cc2ccc(O)cc2)C(N)=O)NC(=O)[C@H](CC2CCCCC2)NC(=O)[C@H](CC(C)C)NC(=O)[C@H](CCCCN)NC1=O)[C@@H](C)O`, the DC50 in [7] is 10 µM.

Regarding `CC1=CC(=O)[C@H]2/C(C=O)=C\C[C@H]3[C@@H]([C@@H](C)/C=C\C=C/C(=O)OCCOCCOC(=O)CC45CC6CC(CC(C6)C4)C5)CC[C@]3(C)C[C@H]12`, in the data set on NCI/ADR-RES, the half-inhibitory concentration (IC50) was determined as 0.87 µM.

As to `CC1=C/C(=N/OC(=O)c2ccccc2C)C(C)=CC1=O`, the IC50 is 1.4 µM in [1] and 10.5 µM in the data set on HeLa.

Consider `CC1=CC(=O)[C@H]2/C(C=O)=C\C[C@H]3[C@@H]([C@@H](C)/C=C\C=C/C(=O)OCCCOC(=O)CC45CC6CC(CC(C6)C4)C5)CC[C@]3(C)C[C@H]12`, for which, in the data set on NCI/ADR-RES, the IC50 was found to be 0.96 µM.

`CC1=C/C(=N\OC(=O)c2ccc(CNC(=O)CCc3cn(CCCCCCOCCOCCNC(=O)[C@H](C)CCC4C5CC6CC(C5)CC4C6)nn3)cc2C)C(C)=CC1=O` (stereo partly specified) registered an IC50 in data set [1] of 48.2 µM.
